Consider five compounds from patent US20240247030A1, “TARGETED DELIVERY OF TERTIARY AMINE-CONTAINING DRUG SUBSTANCES” (Seagen Inc., priority 2014, published 2024).

≈ marks a conversion by molar mass, not a printed value.

The conditions of test [1]: J. Med. Chem., 2009, 52, 238-240; cited from earlier work.
The subject of test [2] is L428 MDR+ HL cells. Description: In vitro cytotoxicity (CellTiter-Glo, 96 h). The test is classed as cell-based. Conditions: 96 hours; for IC50, L428, MDR+ HL: Table 14, cOKT-9 conjugate. In general terms: ATP-based viability assays read luminescence as a measure of living cells.
In test [3] the test system is co-culture of L540cy:U268Luc+ cells. In words: In vitro cytotoxicity, bystander co-culture. Type of test: cell-based. Conditions: cAC10 conjugate obtained from compound 30; CD30+ and CD30- cells co-cultured. Here is the method:
(§1) In vitro assays. Cells cultured in log-phase growth were seeded for 24 h in 96-well plates containing 150 μL RPMI 1640 supplemented with 20% FBS. Serial dilutions of antibody-drug conjugates in cell culture media were prepared at 4× working concentrations; 50 μL of each dilution was added to the 96-well plates. Following addition of ADC, cells were incubated with test articles for 4 d at 37° C. After 96 h, growth inhibition was assessed by CellTiter-Glo™ (Promega, Madison, W1) and luminescence was measured on a plate reader. The IC50 value, determined in triplicate, is defined here as the concentration that results in a 50% reduction in cell growth relative to untreated controls.
The results of Table 2 and Table 3 indicate that potent and immunologically specific Ligand Drug Conjugates are obtained when a tubulysin is incorporated into such constructs as a quaternized drug unit and that such conjugates are active against multi-resistant cell lines. […] L540cy are CD30+ and U266 are CD30^−

Test [4] concerns KM-H2 HL cells. The test is classed as cell-based. Conditions: Table 14; cOKT-9 conjugate, 96 hours.
The subject of test [5] is HL60 AML cells. In words: cells. The test is classed as cell-based. The conditions noted are these: 96 hours; for IC50, HL60, AML: Table 14, cOKT-9 conjugate; for IC50: Homo sapiens, HL-60, 96 h, read-out: IC50, HL60, AML, Table 13, free drug. Here is the method:
as §1

Test [6] concerns L540cy Hodgkin lymphoma cells. Description: In vitro cytotoxicity (CellTiter-Glo, 96 h). Type of test: cell-based. Conditions: Table 14; cOKT-9 (anti-transferrin receptor) conjugate, DAR 8 (30) or 6.7 (192), 96 hours.
Test [7] relates to HCT-116 CRC cells. The test is classed as cell-based. Conditions: Table 14; cOKT-9 conjugate, 96 hours. As for the experimental part: as §1
The subject of test [8] is HEL9217 AML cells. Description: In vitro cytotoxicity (CellTiter-Glo, 96 h). Type of test: cell-based. Conditions: Homo sapiens, HEL 92.1.7, 96 h, read-out: IC50, HEL9217, MDR+ AML.
For test [9], the system named is 786-O RCC cells. In words: In vitro cytotoxicity (CellTiter-Glo, 96 h). Type of test: cell-based. Conditions: Homo sapiens, 786-0, 96 h, read-out: IC50, 786-O, MDR+ RCC.
Test [10] has as its system panel of cell lines. Description: In vitro cytotoxicity, statements across a panel of cell lines. The test is classed as cell-based. Conditions: cOKT-9 conjugates, cell lines of Table 14. Here is the method: as §1

With `CC[C@H](C)[C@H](NC(=O)[C@H]1CCCCN1C)C(=O)N[C@H](C[C@@H](O)c1nc(C(=O)N[C@@H](Cc2ccccc2)C[C@H](C)C(=O)O)cs1)C(C)C` [tubulysin V, Tubulysin V], the “loss of potency on deacetylation of tubulysin U” value in [1] is listed as greater than 100 fold.

Regarding `CC[C@H](C)[C@H](NC(=O)[C@H]1CCCC[N+]1(C)Cc1ccc(NC(=O)[C@H](C)NC(=O)[C@@H](NC(=O)CCCCCN2C(=O)C=CC2=O)C(C)C)cc1)C(=O)N(C)[C@H](C[C@@H](OC(C)=O)c1nc(C(=O)N[C@@H](Cc2ccccc2)C[C@H](C)C(=O)O)cs1)C(C)C` (stereo partly drawn) [Compound 30, (2R)-2-(((2S,3S)-1-(((1R,3R)-1-acetoxy-1-(4-(((2R,4S)-4-carboxy-1-phenylpentan-2-yl)carbamoyl)thiazol-2-yl)-4-methylpentan-3-yl)(methyl)amino)-3-methyl-1-oxopentan-2-yl)carbamoyl)-1-(4-((S)-2-((S)-2-(6-(2,5-dioxo-2,5-dihydro-1H-pyrrol-1-yl)hexanamido)-3-methylbutanamido)propanamido)benzyl)-1-methylpiperidin-1-ium], the “IC50, L428, MDR+ HL” value in [2] stood at 0.4 ng/mL. For the same compound, the “IC50 against a co-culture of L540cy:U268Luc+ cells” value in test [3] is listed as 6 ng/mL. In addition, the “IC50, KM-H2 MDR+ HL” value in test [4] is less than 0.26 ng/mL. In addition, the “IC50, HL60, AML” value in test [5] came to 6 ng/mL. Besides, in [6], the “IC50, L540cy, HL” value was 1 ng/mL. Besides, in test [7], the “IC50, HCT-116, CRC” value is 1 ng/mL.

For `CC[C@H](C)[C@H](NC(=O)[C@H]1CCCCN1C)C(=O)N(C)[C@H](C[C@@H](OC(C)=O)c1nc(C(=O)N[C@@H](Cc2ccccc2)C[C@H](C)C(=O)NN)cs1)C(C)C` [Compound 190, (1R,3R)-3-((2S,3S)—N,3-dimethyl-2-((R)-1-methylpiperidine-2-carboxamido)pentanamido)-1-(4-(((2R,4S)-5-hydrazinyl-4-methyl-5-oxo-1-phenylpentan-2-yl)carbamoyl)thiazol-2-yl)-4-methylpentyl acetate], the IC50 in test [2] (Homo sapiens, L-428, 96 h, read-out: IC50, L428, MDR+ HL, Table 13, free drug) came out at 1 nM; in [8], 4 nM; in test [5] it was 0.8 nM; in [9], 4 nM.

Turning to `CC[C@H](C)[C@H](NC(=O)[C@H]1CCCCN1C)C(=O)N(C)[C@H](C[C@@H](OC(C)=O)c1nc(C(=O)N[C@@H](Cc2ccccc2)C[C@H](C)C(=O)O)cs1)C(C)C` [Compound 26, Tubulysin M, reference compound], the results for the IC50 in [8] and in test [5] were 0.4 nM and 0.2 nM, respectively.

As to `CC[C@H](C)[C@H](NC(=O)[C@H]1CCCCN1C)C(=O)N(C)[C@H](C[C@@H](OC(C)=O)c1nc(C(=O)N[C@@H](Cc2ccccc2)C[C@H](C)C(=O)NNC(=O)OCc2ccc(NC(=O)[C@H](CCCNC(N)=O)NC(=O)[C@@H](NC(=O)CCCCCN3C(=O)C=CC3=O)C(C)C)cc2)cs1)C(C)C` [Compound 192, 4-((S)-2-((S)-2-(6-(2,5-dioxo-2,5-dihydro-1H-pyrrol-1-yl)hexanamido)-3-methylbutanamido)-5-ureidopentanamido)benzyl 2-((2S,4R)-4-(2-((1R,3R)-1-acetoxy-3-((2S,3S)—N,3-dimethyl-2-((R)-1-methylpiperidine-2-carboxamido)pentanamido)-4-methylpentyl)thiazole-4-carboxamido)-2-methyl-5-phenylpentanoyl)hydrazinecarboxylate], the “IC50, L428, MDR+ HL” value in test [2] turned out to be 284 ng/mL (≈ 0.212 µM). In addition, in [10], the “less potent than the quaternary amine-linked TubM (30) conjugate” value is on record as 1-3 logs. The “IC50, KM-H2 MDR+ HL” value in [4] came out at 56 ng/mL (≈ 0.0418 µM). The “IC50, HL60, AML” value in [5] was 85 ng/mL (≈ 0.0634 µM). Also, the “IC50, L540cy, HL” value in [6] worked out at 117 ng/mL (≈ 0.0873 µM). In addition, the “IC50, HCT-116, CRC” value in [7] came out at 302 ng/mL (≈ 0.225 µM).

Usually IC50 stands for the concentration needed to halve the response being measured.
